Measurements taken from article PMC5460289, “Identification of New Shikonin Derivatives as Antitumor Agents Targeting STAT3 SH2 Domain” (Scientific Reports, 2017).

Columns and labels:
Type in all cases: cell-based, human
MDA-MB-231 cells = test: Mitochondrial transmembrane potential by JC-1 staining; settings: 4 h treatment, control 92.3%
Experimental: Subsequently, the mitochondrial transmembrane potential was monitored using JC-1 staining. […] Red fluorescence represents the mitochondrial aggregate form of JC-1 with high ∆Ψm in normal cells. Green fluorescence represents the monomeric form of JC-1 with low ∆Ψm in apoptotic cells.
Figure 5 Mitochondrial transmembrane potential was analysed in PMM-172-treated MDA-MB-231 cells by JC-1 staining. TEXT PRINTED IN THE PICTURE: no label printed: Q1 1.74% (0 μM); Q2 92.3% (0 μM); Q4 0.011% (0 μM); Q3 5.94% (0 μM); Q1 1.88% (2 μM); Q2 73.3% (2 μM); Q4 0.179% (2 μM); Q3 24.6% (2 μM); Q1 1.88% (4 μM); Q2 64.6% (4 μM); Q4 0.227% (4 μM); Q3 33.3% (4 μM); Q1 0.436% (8 μM); Q2 21.3% (8 μM); Q4 0.016% (8 μM); Q3 78.2% (8 μM) DOUBTS OF THE COPYIST ABOUT THIS PICTURE: The picture prints no label for the substance; the plots are told apart only by concentration (0, 2, 4, 8 μM), and the 0 μM plot is the untreated control. / The quadrant percentages are printed very small, so 3, 5, 6, 8 and 9 cannot be told apart with certainty and all readings are best readings: 0 μM: Q1 1.74%, Q2 92.3%, Q3 5.94%, Q4 0.011%; 2 μM: Q1 1.88%, Q2 73.3%, Q3 24.6%, Q4 0.179%; 4 μM: Q1 1.88%, Q2 64.6%, Q3 33.3%, Q4 0.227%; 8 μM: Q1 0.436%, Q2 21.3%, Q3 78.2%, Q4 0.016% […]

[1] = test system: PARP and caspase 3 cleavage in MDA-MB-231 cells; test: Western blot of PARP and caspase 3 cleavage; settings: MDA-MB-231, 24 h treatment
Experimental: To determine whether PMM-172 induced apoptosis, Annexin V/PI double staining assay was conducted. MDA-MB-231 cells were treated with various concentrations of PMM-172 for 24 h, and the percentage of apoptotic cells was markedly elevated in a dose-dependent manner. Likewise, MDA-MB-231 cells were treated with corresponding doses of Stattic. […] The percentages of cell apoptosis 3.12%, 8.12%, 16.81%, 62.74% corresponded to the concentration of PMM-172 0, 2, 4 and 8 μM, respectively, including both the early and the late apoptotic cells. Clearly, PMM-172 can cause cell apoptosis more effectively than Stattic. Moreover, an extend time-course apoptosis analysis of MDA-MB-231 cells treated with 4 μM PMM-172 was carry out. […] To further assess the pro-apoptotic effect of PMM-172, we evaluated the cleavage of poly (ADP-ribose) polymerase (PARP) and caspase 3 in MDA-MB-231 cells after 24 h treatment with PMM-172. […]
Figure 4 The effect of PMM-172 on the cell apoptosis of MDA-MB-231 cells. […] Apoptosis was analyzed by flow cytometry by using Annexin V/PI double staining. […] (E) PARP and caspase 3 cleavage in MDA-MB-231 cells after treated with various concentrations of PMM-172 for 24 h were detected by using Western blot analysis. The relative expression level was analyzed by Image J software. […]

STAT5 = test: Western blot of STAT5 phosphorylation and expression; settings: MDA-MB-231
Experimental: Figure 6 (A) PMM-172 suppressed constitutive pSTAT3 (Tyr705) in a dose-dependent manner. (B) PMM-172 suppressed constitutive pSTAT3 (Tyr705) in a time-dependent manner. (C) MDA-MB-231 cells were treated with IL-6 (20 ng/mL) or vehicle for 30 min, with or without pretreatment with PMM-172 (2 μM) for 24 h. PMM-172 inhibited IL-6 induced phosphorylation of STAT3. (D) Stattic suppressed constitutive pSTAT3 (Tyr705) in a dose-dependent manner. (E) Stattic suppressed constitutive pSTAT3 (Tyr705) in a time-dependent manner. (F) Tyrosine phosphorylation of two STAT family proteins STAT1 and STAT5 were detected with specific antibodies. […] Data were shown as mean ± SD of three independent experiments. *P < 0.05, **P < 0.01. Cropped blots/gels were used in the figure and the gels had been run under the same experimental conditions; the full-length blots/gels are presented in Supplementary Figure S2.
Subsequently, we evaluated the phosphorylation level of other STAT family proteins including STAT1 and STAT5.
Cells were rinsed twice with cold PBS and then lysed with RIPA buffer containing a protease inhibitor mixture at 1:100 dilution on ice for 30 min. Insoluble components of cell lysates were removed by centrifugation (4 °C, 12000 rmp, 10 min), and protein concentrations were measured using a Pierce BCA protein assay kit. […]

COc1cc(OC)cc(-c2nnc(SCC(=O)O[C@H](CC=C(C)C)C3=CC(=O)c4c(O)ccc(O)c4C3=O)o2)c1 [PMM-172, (R)-1-(5,8-dihydroxy-1,4-dioxo-1,4-dihydronaphthalen-2-yl)-4-methylpent-3-en-1-yl 2-((5-(3,5-dimethoxyphenyl)-1,3,4-oxadiazol-2-yl)thio)acetate]
JC-1 quadrant Q2 (ratio of cells with high membrane potential) (MDA-MB-231 cells; 4 μM): 64.6% | JC-1 quadrant Q2 (ratio of cells with high membrane potential) (MDA-MB-231 cells; 8 μM): 21.3% | PARP and caspase 3 cleavage [1]: could induce PARP and caspase 3 cleavage | phosphorylation and expression of STAT5 (STAT5): inhibited neither the phosphorylation nor expression
